According to patent publication US12133836B2, “Reduction of adipose tissue” (10XBIO, LLC, priority 2015, dated 2024):

How the values were obtained:
fat tissue = assay: Co-solvent injected with polidocanol (tolerability, uniformity of fat necrosis); type: in vivo; settings: as co-solvent
skin tissue = assay: Skin adverse events (skin necrosis) after subcutaneous injection into the inguinal fat pad; type: in vivo, LVG Syrian Golden Hamsters
Description: (§1) Model: The inguinal fat pads were used as a model tissue. In the golden hamster, these subcutaneous fat pads lying bilaterally in the inguinal region were continuous with fat pads located laterally on each respective flank, and thus were referenced here as inguinal-lateral fat pads or ILFPs. The length of each fat pad offered the opportunity for two injections spaced approximately […] within each fat pad, and similarly placed control injections in the contralateral fat pad of the same animal. The unilateral experimental treatment in this model offered the advantage of paired comparison of treated and non-treated fat pads within individual animals, and served as a model to assess lipolytic effects of test compounds.
(§2) Test Articles: Polidocanol: Solutions provided by Advantar (or other), 0.5%, 1.25%, and 2.0%, formulated with propylene glycol.
(§3) Treatment: Under isoflurane anesthesia, the right ILFP was injected with 0.2 cc of drug solution at two sites (medial and lateral portions of the ILFP), spaced 0.5 cm apart. The left ILFP was injected in medial and lateral sites with filtered vehicle control solution. A total of 36 animals were divided into three dose groups, outlined in the following table:
(§4) The animals were injected percutaneously with 0.2 mL/injection of test article solution at up to four (4) sites (in the medial, central, and lateral portions of the ILFP) running superiorly to caudally, spaced 0.5 cm apart. The injections were carried out by inserting the needle into the right inguinal region, locating the tip of the needle in the middle of the fat pad between the peritoneal wall and the right leg. In hamsters, the fat could be roughly visualized as a light area beneath the skin. The tip of the needle was at a depth adequate to enter the inguinal fat (as discerned by the thickness of tissue when the needle tip is raised slightly upward while in its final position) while avoiding the leg muscle and the peritoneum. The needle tip was placed approximately 0.5 cm medial to a line drawn from the patella of the knee to the xyphoid appendix of the sternum.

adipose tissue = assay: Histological analysis of treated adipose tissue (H&E); type: in vivo, LVG Syrian Golden Hamsters; settings: H&E stained sections
Procedure: Histological analysis: The right (polidocanol treated) medial injection sites of all six subjects, and one left (saline treated) site from each treatment group (animals #3 and #5), were analyzed histologically to determine evidence of necrosis within the adipose tissue. The selected samples were sectioned at a thickness of 20 microns taken at intervals of 0.5 mm through the tissue. The sections were mounted and stained with H&E and examined microscopically for evidence of necrosis or inflammation. Representative images of each tissue were recorded with a Carl Zeiss color camera.
In addition, there is a lymphomononuclear inflammatory infiltrate with macrophage phagocytosis of lipid cell debris.

[1] = tested on: inguinal-lateral fat pad (ILFP); assay: Effect of polidocanol on the inguinal-lateral fat pad (ILFP) of hamsters: fat weight analysis; type: in vivo, LVG Syrian Golden Hamsters
Description: Concentration of polidocanol solutions: 0.5%, 1.25% and 2%; Deoxycholate dose concentration: 1.0%
Species: LVG Syrian Golden Hamsters, retired breeders
Body weight: 165-187 grams (on first day of treatment period); Sex: Male; Vendor: Charles River; Diet: Standard lab chow; Randomization: Animals were grouped so that the mean body weights are approximately equal among the treatment subgroups
as §1, §2, §3
Harvesting: On day 28 (injections at Day 0) and 56 (injections at Day 0 and Day 28), the animals were sacrificed and the ILFPs excised and weighed (see “INGUINAL/LATERAL FAT PAD HARVESTING PROCEDURE,” below). Medial and lateral portions of each ILFP were weighed together. After weighing, each portion was frozen separately on dry ice and stored frozen for histological analysis.
Fat weight analysis: Results were expressed primarily as the mean difference between the right and left ILFPs in grams (A R-L) and as the percent difference (A R-L %). Statistical analysis was performed.
as §4
With the animal lying ventral side up, skin was cut along abdominal midline from the umbilicus to a point caudal to the penis near the bottom of the scrotum. The skin was cut from the penile area in a posterior and lateral direction toward the posterior of the hindlimb. […] An elipse was harvested of skin overlying the region of the ILFP, and placed in formalin for storage and. […]

For `CC(O)CO` (centres unmarked) [propylene glycol, propane-1,2-diol], the “irritation when injected with polidocanol” value (fat tissue) was “non-irritating” and the “patchy and incomplete fat tissue necrosis” value (fat tissue; relative to the absence of co-solvent) was “reduced amount of patchy and incomplete fat tissue necrosis”.
For polidocanol, the “skin necrosis (proportion of animals)” value (skin tissue; 2% polidocanol) was 33%, the “selectivity for fat tissue relative to skin tissue” value (skin tissue; FIG. 6) was “selectively destroys fat tissue relative to skin tissue” and the “skin necrosis side effect, number of animals” value (from here on “skin necrosis side effect”) (skin tissue; Polidocanol 1.25%, Group 2A, moderate skin necrosis (FIG. 8A)) was 1 of 9. The “skin necrosis side effect” value (skin tissue; Polidocanol 2%, Group 3B, moderate skin necrosis (FIG. 8B)) was 2 animals, the “side effects such as skin necrosis, inflammation, large subcutaneous fat droplets” value (skin tissue; polidocanol concentration greater than about 1.25%) was “higher proportion of side effects” and the “animals with mild skin breakdown” value (skin tissue; polidocanol injection at 0.5% (1 of 9 animals)) was 11%. For the same molecule, the “animals with mild skin breakdown” value (skin tissue; polidocanol injection at 1.25% (1 of 9 animals)) was 11%, the “histopathology of treated adipose tissue” value (adipose tissue) was “dose dependent changes of fat cell necrosis and apoptosis” and the “visible change in inguinal fat pad fullness / inguinal crease (body contour)” value ([1]; FIG. 5A-5B) was “externally visible reduction in inguinal fat pad fullness”. For the same molecule, the “reductions in inguinal fat pad mass” value ([1]; polidocanol 0.5%, day 28 after a single treatment, formulated with propylene glycol) was 15%, the “reductions in inguinal fat pad mass” value ([1]; polidocanol 1.25%, day 28 after a single treatment, formulated with propylene glycol) was 15% and the “fat pad mass reductions” value ([1]; polidocanol 2.0%, day 28 after a single treatment, formulated with propylene glycol) was 10%. For the same molecule, the “reductions in fat pad mass relative to deoxycholate” value ([1]; same optimized dosing frequency, volume, and injection spacing (FIG. 3)) was “at least equivalent to deoxycholate”.
deoxycholate was tested, and the “animals that developed severe skin necrosis” value (skin tissue; 1% deoxycholate (3 of 5 animals)) was 60% and the “skin necrosis side effect” value (skin tissue; Deoxycholate 1%, Group 4 (FIG. 8C)) was 3 of 5.
